Data published in patent publication US5674894A, “Amidine derivatives useful as platelet aggregation inhibitors and vasodilators” (G.D. Searle & Co., priority 1995, dated 1997).

Assays:
[1] = target: purified human vitronectin receptor (αv β3) (Homo sapiens, UniProt P05106+P06756); test: Solid phase receptor assay, competitive binding to purified human vitronectin receptor; details: biotinylated vitronectin 1 nM final, two hours, highest concentration 1.0×10^-4M, read-out: IC50 Vitronetin receptor
Experimental: (§1) The compounds of the above invention were tested in the in vitro human platelet aggregation assay in platelet rich plasma (PRP) and in the competitive solid phase binding assay against purified human fibrinogen and vitronectin receptors.
(§2) Solid Phase Receptor Assays
(§3) These assays were essentially the same as previously reported. The purified human vitronectin receptor(αv β3) or purified human fibrinogen receptor(IIb^β 3) were diluted from stock solutions to 1.0 μg/mL in Tris-buffered saline containing 1.0 mM Ca^++, Mg^++, and Mn^++, pH 7.4 (TBS^+++). The diluted receptor was immediately transferred to Linbro microtiter plates at 100 μL/well (100 ng receptor/well). The plates were sealed and incubated overnight at 4° C. to allow the receptor to bind to the wells. All remaining steps were at room temperature. The assay plates are emptied and 200 μL of 1% radioimmunoassay grade bovine serum albumin in TBS^+++ (TBS^+++ /BSA) were added to block exposed plastic surfaces. Following a 2 hour incubation, the assay plates were washed with TBS^+++ using a 96 well plate washer. Logarithmic serial dilution of the test compound and controls were made starting at a stock concentration of 2 mM and using 2 nM biotinylated vitronectin in TBS^+++ /BSA as the diluent. This premixing of labeled ligand with test (or control) ligand, and subsequent transfer of 50 μL aliquots to the assay plate was carried out with a CETUS Propette robot; the final concentration of the labeled ligand was 1 nM and the highest concentration of test compound was 1.0×10^-4M. The competition occurred for two hours after which all wells were washed with a plate washer as before. Affinity purified horseradish peroxidase labeled goat anti-biotin antibody was diluted 1:3000 in TBS^+++ /BSA and 125 μL were added to each well. After 30 minutes, the plates were washed and incubated with o-phenylendiamine/H2 O2 substrate in 100 mM/L Citrate buffer, pH 5.0. The plate was read with a microtiter plate reader at a wavelength of 450 nm and when the maximum-binding control wells reached an absorbance of about 1.0, the final A450 were recorded for analysis. The data were analyzed using a macro written for use with the EXCEL™ spreadsheet program. The mean, standard deviation, and % coefficient variation were determined for duplicate concentrations. The mean A450 values were normalized to the mean of four maximum-binding controls (no competitor added). The normalized values were subjected to a four parameter curve fit algorithm, plotted on a semi-log scale, and the computed IC50 and corresponding correlation coefficient was reported. GRGDSP, a peptide fragment of fibrinogen, was included on each plate as a positive control.

[2] = test system: ADP-Induced Platelet Aggregation in Human PRP; test: In-Vitro Human Platelet Aggregation in PRP (ADP-induced); format: cell-based; details: 1 minute preincubation at 37° C., tested in duplicate, read-out: IC50, inhibition of ADP-induced platelet aggregation in human PRP
Experimental: as §1
In-Vitro Human Platelet Aggregation in PRP:
Healthy male or female donors who have not taken any antiplatelet drugs for at least two weeks were fasted for 8 hours prior to drawing blood; then 30 mL whole blood was collected using a butterfly needle and 30 cc plastic syringe with 3 mL of 0.129M buffered sodium citrate (3.8%). The syringe was rotated carefully as blood was drawn to mix the citrate. Platelet-richplasma (PRP) was prepared by centrifugation at 250× g for 12 minutes at room temperature, allowing the centrifuge to coast to a stop without braking. The PRP was removed from the blood with a plastic pipette and placed in a plastic capped, 50 mL Corning conical sterile centrifuge tube which was held at room temperature. Platelet-poor plasma (PPP) was prepared by centrifuging the remaining blood at 2000× g for 15 minutes at room temperature allowing the centrifuge to coast to a stop without braking. The PRP was adjusted with PPP to a count of 2-3×10^8 platelets per mL. 450 μL of the PRP preparation and 50 μL of the compound to be tested or saline were preincubated for 1 minute at 37° C. in a Payton aggregometer (Payton Scientific, Inc., Buffalo, N.Y.). 50 μL of adenosine 5'-diphosphate (ADP) ([…]) was added to the cuvettes and the aggregation was monitored for 1 minute. All compounds are tested in duplicate. Results are calculated as follows: Percent of control=[(maximal OD minus initial OD of compound) divided by (maximal OD minus initial OD of control saline)]×100. The % inhibition=100-(percent of control). The compounds tested and their activity results at median inhibitory concentration (IC50) were as recorded in Table 1.

[3] = target: purified human fibrinogen receptor (IIb^β 3) (Homo sapiens, UniProt P05106+P08514); test: Solid phase receptor assay, competitive binding to purified human fibrinogen receptor; details: biotinylated ligand 1 nM final, two hours, room temperature
Experimental: as §1, §2, §3

SMILES	IC50 [1]	IC50 [2]	IC50 [3]
N=C(N)c1ccc(CCCCC(=O)NC(CC(=O)O)C(=O)O[C@H]2CO[C@H]3[C@@H]2OC[C@H]3O[N+](=O)[O-])cc1 (stereo partly drawn) [Example 3]	> 100000 nM	2000 nM	3.11 nM
N=C(N)c1ccc(CCCCC(=O)NC(CC(=O)O)C(=O)OC2COC3C(O)COC23)cc1 (stereo not drawn) [Example 5]	> 100000 nM	2000 nM	1.28 nM
N=C(N)c1ccc(NC(=O)CCC(=O)NC(CC(=O)O)C(=O)O[C@H]2CO[C@H]3[C@@H]2OC[C@H]3O[N+](=O)[O-])cc1 (stereo partly drawn) [Example 6]	> 100000 nM	400 nM	0.25 nM
N=C(N)c1ccc(NC(=O)CCC(=O)NC(CC(=O)O)C(=O)O[C@H]2CO[C@H]3[C@@H]2OC[C@H]3O)cc1 (stereo partly drawn) [Example 8]	> 100000 nM	300 nM	0.71 nM
